Changes are numbered by the printed parent chain.
Key:
[1] = biological target: T1, β-glucocerebrosidase, p.L444P mutation (GM08760A fibroblasts) (Homo sapiens, UniProt P04062, L483P); experiment: Enhancement of β-glucocerebrosidase activity measured in Gaucher disease fibroblasts (L444P); type: cell-based; details: increase in enzyme activity vs non-treated cells, GBA fibroblasts bearing L444P
T1 construct: host or cells: human Gaucher patient fibroblasts GM08760A, homozygous L444P
T1 sequence (P04062 40-536 L483P): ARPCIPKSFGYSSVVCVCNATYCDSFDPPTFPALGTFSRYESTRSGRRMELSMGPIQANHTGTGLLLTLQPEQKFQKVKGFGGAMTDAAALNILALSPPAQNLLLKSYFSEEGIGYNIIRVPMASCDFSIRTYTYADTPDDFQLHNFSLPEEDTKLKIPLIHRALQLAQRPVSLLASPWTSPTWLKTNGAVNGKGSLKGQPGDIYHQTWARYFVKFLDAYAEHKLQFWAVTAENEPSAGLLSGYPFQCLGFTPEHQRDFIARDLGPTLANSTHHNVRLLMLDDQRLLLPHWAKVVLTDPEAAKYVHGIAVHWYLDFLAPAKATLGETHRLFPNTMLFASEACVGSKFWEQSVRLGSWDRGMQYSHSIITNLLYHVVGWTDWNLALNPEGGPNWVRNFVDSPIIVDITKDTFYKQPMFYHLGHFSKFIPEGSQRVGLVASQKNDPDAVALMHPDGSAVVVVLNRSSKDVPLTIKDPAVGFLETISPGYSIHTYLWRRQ
Description: Enhancement of β-Glucocerebrosidase Activity Measured in Gaucher Disease Fibroblasts Materials
Human fibroblasts from a patient with Gaucher disease homozygous for p.L444P mutation (GM08760A) were purchased from Coriell Institute for Medical Research (Camden, N.J., USA).
(§1) Fibroblasts were seeded at 5×10^3 cells per well in 96-well cell culture plates (Corning, N.Y., USA) in Dulbecco's Modified Eagle's Media (DMEM) supplemented with 10% of fetal bovine serum (FBS), 1% penicillin/streptomycin (P/S) (Thermo Fisher Scientific, Waltham, Mass., USA) and grown at 37° C., 5% CO2 overnight for cell attachment. Subsequently, cells were incubated in the absence or presence of the compounds at the desired concentration for 4 days. After incubation, cells were washed twice with phosphate-buffered saline (PBS) and enzyme activity assay was performed.
(§2) β-glucocerebrosidase activity in intact cultured cells was measured by using 4-methylumbelliferyl-β-D-glucopyranoside substrate (Apollo Scientific, UK). Briefly, cells were incubated with 4-MU-β-D-glucopyranoside in 0.1 M acetate buffer pH=4 at 37° C. for 1 hour. […] The liberated 4-MU was measured on a GloMax Discover plate reader (Promega, Madison, Wis., USA) with and excitation at 340 nm and emission at 460 nm. Enzyme activities were expressed in treated cells as X-fold increase in comparison with non-treated cells (X=1 represents no enhancement).
The capacity of the compounds of the disclosure to produce an increase in enzyme activity in GBA fibroblasts bearing L444P at concentrations between 6 and 50 μM is denoted as follows:
(§3) The following compounds listed in Table 2 were purchased (from Enamine, Princeton, Asinex, Vistas-M, and OSSK_541352) and tested in the assay as described above.

[2] = biological target: T2, β-glucocerebrosidase Wild Type (WT) (Homo sapiens, UniProt P04062); experiment: β-glucocerebrosidase activity enhancement, Wild Type (WT); type: cell-based; details: increase in enzyme activity vs non-treated cells; for Activity WT: commercially available compounds
T2 construct: endogenous in cells
T2 sequence (P04062 40-536): T1 sequence (P04062 40-536 L483P) with P444L
Description: as §1, §2, §3

[3] = commercially available compounds, 6-50 μM, 4 days
[4] = concentrations between 6 and 50 μM, 4 days incubation

SMILES | Activity L444P [1, 3] | Activity WT [2] | Activity L444P [1, 4] | Activity Wild Type (WT) [2]
Nc1nc(CN2CCN(c3cccc(Cl)c3)CC2)nc(Nc2ccc3c(c2)OCCO3)n1 [6-((4-(3-chlorophenyl)piperazin-1-yl)methyl)-N2-(2,3-dihydrobenzo[b][1,4]dioxin-6-yl)-1,3,5-triazine-2,4-diamine] | B (Increase in comparison with non-treated of >1.7-2.0 fold is shown as B) | C (Increase in comparison with non-treated of 1.2-1.7 fold is shown as C) | – | –
CN(Cc1ccccc1)Cc1cc(Nc2cccc3c2OCO3)nc(N)n1 [Example 43, N^4-(Benzo[d][1,3]dioxol-4-yl)-6-((benzyl(methyl)amino)methyl)pyrimidine-2,4-diamine] | – | – | C (Increase in comparison with non-treated of 1.2-1.7 fold is shown as C) | C (Increase in comparison with non-treated of 1.2-1.7 fold is shown as C)
COc1ccccc1Nc1nc(N)cc(CN(C)Cc2ccccc2)n1 [Example 67, 6-((Benzyl(methyl)amino)methyl)-N^2-(2-methoxyphenyl) pyrimidine-2,4-diamine] | – | – | A (Increase in comparison with non-treated of >2.0 fold is shown as A) | B (Increase in comparison with non-treated of >1.7-2.0 fold is shown as B)
CN(Cc1ccccc1)Cc1nc(N)nc(Nc2cccc(Br)c2)n1 [Example 8] | – | – | B (Increase in comparison with non-treated of >1.7-2.0 fold is shown as B) | B (Increase in comparison with non-treated of >1.7-2.0 fold is shown as B)
Cc1ccc(Nc2cc(CN(C)c3ccccc3)nc(N)n2)cc1 [Example 13, 6-((Methyl(phenyl)amino)methyl)-N^4-(p-tolyl)pyrimidine-2,4-diamine] | – | – | B (Increase in comparison with non-treated of >1.7-2.0 fold is shown as B) | B (Increase in comparison with non-treated of >1.7-2.0 fold is shown as B)
Cc1ccc(Nc2nc(N)nc(CN3CCCc4ccccc43)n2)cc1 [6-((3,4-dihydroquinolin-1(2H)-yl)methyl)-N2-(p-tolyl)-1,3,5-triazine-2,4-diamine] | C (Increase in comparison with non-treated of 1.2-1.7 fold is shown as C) | C (Increase in comparison with non-treated of 1.2-1.7 fold is shown as C) | – | –
Cc1ccc(Nc2nc(N)nc(CN(C)c3ccc4ccccc4c3)n2)cc1 [6-((methyl(naphthalen-2-yl)amino)methyl)-N2-(p-tolyl)-1,3,5-triazine-2,4-diamine] | A (Increase in comparison with non-treated of >2.0 fold is shown as A) | C (Increase in comparison with non-treated of 1.2-1.7 fold is shown as C) | – | –
COc1ccc(Nc2nc(N)nc(CN(C)Cc3ccccc3)n2)cc1 [Example 6, 6-((Benzyl(methyl)amino)methyl)-N^2-(4-methoxyphenyl)-1,35-triazine-2,4-diamine] | – | – | B (Increase in comparison with non-treated of >1.7-2.0 fold is shown as B) | B (Increase in comparison with non-treated of >1.7-2.0 fold is shown as B)
COc1ccc(Nc2cc(CN(C)Cc3ccccc3)nc(N)n2)cc1 [Example 18, 6-((benzyl(methyl)amino)methyl)-N^4-(4-methoxyphenyl)pyrimidine-2,4-diamine] | – | – | B (Increase in comparison with non-treated of >1.7-2.0 fold is shown as B) | B (Increase in comparison with non-treated of >1.7-2.0 fold is shown as B)
CN(Cc1ccccc1)Cc1cc(Nc2cccc(Cl)c2)nc(N)n1 [Example 20] | – | – | B (Increase in comparison with non-treated of >1.7-2.0 fold is shown as B) | B (Increase in comparison with non-treated of >1.7-2.0 fold is shown as B)
COc1cccc(Nc2cc(CN(C)Cc3ccc(F)cc3)nc(N)n2)c1 [Example 45, 6-(((4-Fluorobenzyl)(methyl)amino)methyl)-N^4-(3-methoxyphenyl)pyrimidine-2,4-diamine] | – | – | C (Increase in comparison with non-treated of 1.2-1.7 fold is shown as C) | C (Increase in comparison with non-treated of 1.2-1.7 fold is shown as C)
COc1cccc(Nc2cc(N)nc(CN(C)Cc3ccccc3)n2)c1 [Example 65, 2-((Benzyl(methyl)amino)methyl)-N^4-(3-methoxyphenyl)pyrimidine-4,6-diamine] | – | – | B (Increase in comparison with non-treated of >1.7-2.0 fold is shown as B) | A (Increase in comparison with non-treated of >2.0 fold is shown as A)
Cc1ccc(Nc2cc(CN3CCCc4ccccc43)nc(N)n2)cc1 [Example 14, 6-((3,4-Dihydroquinolin-1(2H)-yl)methyl)-N^4-(p-tolyl)pyrimidine-2,4-diamine] | – | – | C (Increase in comparison with non-treated of 1.2-1.7 fold is shown as C) | B (Increase in comparison with non-treated of >1.7-2.0 fold is shown as B)
COc1ccc(CN(C)Cc2cc(Nc3ccc(C)cc3)nc(N)n2)cc1 [Example 33, 6-(((4-Methoxybenzyl)(methyl)amino)methyl)-N^4-p-tolylpyrimidine-2,4-diamine] | – | – | B (Increase in comparison with non-treated of >1.7-2.0 fold is shown as B) | B (Increase in comparison with non-treated of >1.7-2.0 fold is shown as B)
Cc1ccc(Nc2nc(N)nc(CN(C)c3ccccc3)n2)cc1 [Example 1, 6-((Methyl(phenyl)amino)methyl)-N^2-(p-tolyl)-1,3,5-triazine-2,4-diamine] | – | – | C (Increase in comparison with non-treated of 1.2-1.7 fold is shown as C) | B (Increase in comparison with non-treated of >1.7-2.0 fold is shown as B)
COc1cccc(Nc2nc(N)nc(CN(C)c3ccccc3)n2)c1 [Example 3] | – | – | C (Increase in comparison with non-treated of 1.2-1.7 fold is shown as C) | B (Increase in comparison with non-treated of >1.7-2.0 fold is shown as B)
CCN(Cc1ccccc1)Cc1cc(Nc2cccc(OC)c2)nc(N)n1 [Example 48, 6-((Benzyl(ethyl)amino)methyl)-N^4-(3-methoxyphenyl)pyrimidine-2,4-diamine] | – | – | C (Increase in comparison with non-treated of 1.2-1.7 fold is shown as C) | B (Increase in comparison with non-treated of >1.7-2.0 fold is shown as B)
COc1cccc(N2CCN(Cc3nc(N)nc(NCc4ccccc4)n3)CC2)c1 [N2-benzyl-6-((4-(3-methoxyphenyl)piperazin-1-yl)methyl)-1,3,5-triazine-2,4-diamine] | C (Increase in comparison with non-treated of 1.2-1.7 fold is shown as C) | C (Increase in comparison with non-treated of 1.2-1.7 fold is shown as C) | – | –
COc1cccc(Nc2nc(N)cc(CN(C)Cc3ccccc3)n2)c1 [Example 69, 6-((Benzyl(methyl)amino)methyl)-N^2-(3-methoxyphenyl)pyrimidine-2,4-diamine] | – | – | A (Increase in comparison with non-treated of >2.0 fold is shown as A) | C (Increase in comparison with non-treated of 1.2-1.7 fold is shown as C)

From patent US11174242B2, “Heteroaryl compounds and their use” (Minoryx Therapeutics S.L., priority 2016, dated 2021)
